Data as given in patent US8765779B2, “Tricyclic derivatives and their pharmaceutical use and compositions” (Cephalon, Inc., priority 2009, dated 2014).

These molecules were tested against T1, human 5-HT6 receptor (Homo sapiens, UniProt P50406) (assay: Human 5-HT6 Receptor Binding Assay ([3H]LSD displacement, scintillation beads)). Settings: membranes of CHO-K1 cells with recombinant human 5-HT6, 4 nM [3H]LSD; Table 1, class symbols; read-out: h5-HT6 (Ki).
T1 construct: host or cells: CHO-K1 cells, stably transfected; membranes prepared in house
T1 sequence (P50406 whole entry): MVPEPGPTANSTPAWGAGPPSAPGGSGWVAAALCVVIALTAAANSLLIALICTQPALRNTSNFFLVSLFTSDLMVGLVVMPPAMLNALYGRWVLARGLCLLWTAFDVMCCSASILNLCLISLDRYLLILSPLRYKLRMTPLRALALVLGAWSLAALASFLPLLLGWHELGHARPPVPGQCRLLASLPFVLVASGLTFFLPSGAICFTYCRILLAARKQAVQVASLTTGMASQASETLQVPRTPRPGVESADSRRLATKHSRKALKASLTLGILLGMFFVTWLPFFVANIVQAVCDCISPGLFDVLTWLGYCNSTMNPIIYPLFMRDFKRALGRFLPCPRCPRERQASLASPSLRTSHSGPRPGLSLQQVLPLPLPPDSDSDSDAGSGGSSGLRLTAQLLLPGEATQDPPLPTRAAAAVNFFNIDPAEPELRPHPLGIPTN

Ki [µM]	Compound
0.5 to 1	O=S(=O)(c1ccc(OC(F)(F)F)cc1)c1ccc2oc3c(c2c1)CCNC3 [Example 275, 6-{[4-(trifluoromethoxy)phenyl]sulfo-nyl}-1,2,3,4-tetrahydro[1]benzofuro[2,3-c]pyridine]
< 0.5	COCC1(C)NCCc2c1oc1cc(S(=O)(=O)c3cccc(F)c3)ccc21 (racemic) [Example 49, 7-[(3-fluorophenyl)sulfonyl]-1-(methoxymethyl)-1-methyl-1,2,3,4-tetrahydro[1]benzofuro[2,3-c]pyridine]
< 0.5	O=S(=O)(c1cccc(F)c1)c1ccc2oc3c(c2c1)CCNC3C1CC1 (stereo not drawn) [Example 517]
< 0.5	O=S(=O)(c1ccc(Cl)cc1)c1cccc2c1OC1CNCCC21 (stereo not drawn) [Example 188]
< 0.5	O=S(=O)(c1ccc2c3c(oc2c1)CNCC3)c1c(F)c(F)cc(F)c1F [Example 225]
< 0.5	O=S(=O)(c1ccc2c(c1)OC1CNCCC21)c1cccc2cccnc12 (stereo not drawn) [Example 333]
< 0.5	CC1OCCC12NCCc1c2oc2cc(S(=O)(=O)c3cccc(F)c3)ccc12 (single isomer, unassigned) [Example 60, 7-[(3-Fluorophenyl)sulfonyl]-2′-methyl-3,4,4′,5′-tetrahydro-2H-spiro[1-benzofuro[2,3-c]pyridine-1,3′-furan]]
< 0.5	CC(C)c1ccc(S(=O)(=O)Oc2ccc3c(c2)OC2CNCCC32)cc1 (stereo not drawn) [Example 795]
< 0.5	CC(C)Oc1ncccc1[S+]([O-])c1ccc2oc3c(c2c1)CCNC3 (stereo not drawn) [Example 446]
< 0.5	O=S(=O)(c1cc(F)cc(F)c1)c1ccc2c3c([nH]c2c1)C1(CCCOC1)NCC3 (stereo not drawn) [Example 312]
< 0.5	CC(C)Oc1cccc(S(=O)(=O)c2ccc3c(c2)OC2CNCCC32)c1 (stereo not drawn) [Example 136]
0.5 to 1	CC(C)(C)c1ccc(S(=O)(=O)Oc2ccc3c(c2)C2CCNCC2O3)cc1 (stereo not drawn) [Example 727]
> 1	O=S(=O)(Oc1ccc2c(c1)OC1CN(C3CCCC3)CCC21)c1ccc(Cl)cc1 (stereo not drawn) [Example 801]
< 0.5	O=S(=O)(c1ccc2c(c1)C1CCNCC1O2)c1ccc2ccccc2c1 (stereo not drawn) [Example 175]
> 1	O=S(=O)(Nc1ccccc1F)c1ccc2c(c1)C1CCNCC1O2 (stereo not drawn) [Example 839]
< 0.5	O=S(=O)(c1ccc2c(c1)OC1CNCCC21)c1cccc(OCC2CCOCC2)c1Cl (stereo not drawn) [Example 485]
< 0.5	CC1(C)NCCc2c1oc1cc(S(=O)(=O)c3cccc(C(F)(F)F)c3)ccc21 [Example 289]
< 0.5	O=S(=O)(c1ccc2c(c1)OC1CNCCC21)c1ccccc1OCC(F)(F)F (stereo not drawn) [Example 421]
< 0.5	O=S(=O)(Oc1ccc2c(c1)C1CCNCC1O2)c1cccc(Cl)c1Cl (stereo not drawn) [Example 740]
< 0.5	O=S(=O)(c1ccc(F)cc1)c1ccc2c3c(oc2c1)CNCC3 [Example 213]
< 0.5	CC1NCCc2c1oc1cc(S(=O)(=O)c3ccc(F)c(F)c3)ccc21 (stereo not drawn) [Example 238]
< 0.5	O=S(=O)(c1cccc(F)c1)c1ccc2c3c(oc2c1)C(CCBr)NCC3 (stereo not drawn) [Example 497]
< 0.5	O=S(=O)(Oc1ccc2c(c1)OC1CNCCC21)c1cc(Cl)cc(Cl)c1 (stereo not drawn) [Example 677]
> 1	Cc1ccc(S(=O)(=O)c2ccc3c(c2)C2CCNCC2O3)cc1 (stereo not drawn) [Example 174]
< 0.5	Cc1cc(COc2cccc(S(=O)(=O)c3ccc4c(c3)OC3CNCCC43)c2)no1 (stereo not drawn) [Example 565]
< 0.5	O=S(=O)(c1ccc2c(c1)OC1CNCCC21)c1ccccc1-c1ccccc1 (stereo not drawn) [Example 152]
> 1	O=S(=O)(Oc1ccc2c(c1)C1CCNCC1O2)c1ccccc1C(F)(F)F (stereo not drawn) [Example 736]
< 0.5	O=S(=O)(c1ccc2c(c1)OC1CNCCC21)c1cccc(Cl)c1Cl (stereo not drawn) [Example 123]

Compound	Ki [µM]
[O-][S+](c1cncc(F)c1)c1ccc2c(c1)OC1CNCCC21 (stereo not drawn) [Example 396]	> 1
CC12CCNCC1Oc1ccc(S(=O)(=O)c3ccncc3)cc12 (racemic) [Example 13, 4a-methyl-6-(pyridin-4-ylsulfonyl)-1,2,3,4,4a,9a-hexahydro[1]benzofuro[2,3-c]pyridine]	> 1
